The compounds below were run against T1, Glucocorticoid Receptor (GR) (Homo sapiens, UniProt P04150) (assay: GR Florescence Polarization Assay (PolarScreen Glucocorticoid Receptor Competitor Assay, Red)). Details: Fluorescense polarization binding ranges; competition with fluorescent glucocorticoid, incubated overnight at 4° C.
T1 construct: purchased Invitrogen P2893
T1 sequence (P04150 1-777): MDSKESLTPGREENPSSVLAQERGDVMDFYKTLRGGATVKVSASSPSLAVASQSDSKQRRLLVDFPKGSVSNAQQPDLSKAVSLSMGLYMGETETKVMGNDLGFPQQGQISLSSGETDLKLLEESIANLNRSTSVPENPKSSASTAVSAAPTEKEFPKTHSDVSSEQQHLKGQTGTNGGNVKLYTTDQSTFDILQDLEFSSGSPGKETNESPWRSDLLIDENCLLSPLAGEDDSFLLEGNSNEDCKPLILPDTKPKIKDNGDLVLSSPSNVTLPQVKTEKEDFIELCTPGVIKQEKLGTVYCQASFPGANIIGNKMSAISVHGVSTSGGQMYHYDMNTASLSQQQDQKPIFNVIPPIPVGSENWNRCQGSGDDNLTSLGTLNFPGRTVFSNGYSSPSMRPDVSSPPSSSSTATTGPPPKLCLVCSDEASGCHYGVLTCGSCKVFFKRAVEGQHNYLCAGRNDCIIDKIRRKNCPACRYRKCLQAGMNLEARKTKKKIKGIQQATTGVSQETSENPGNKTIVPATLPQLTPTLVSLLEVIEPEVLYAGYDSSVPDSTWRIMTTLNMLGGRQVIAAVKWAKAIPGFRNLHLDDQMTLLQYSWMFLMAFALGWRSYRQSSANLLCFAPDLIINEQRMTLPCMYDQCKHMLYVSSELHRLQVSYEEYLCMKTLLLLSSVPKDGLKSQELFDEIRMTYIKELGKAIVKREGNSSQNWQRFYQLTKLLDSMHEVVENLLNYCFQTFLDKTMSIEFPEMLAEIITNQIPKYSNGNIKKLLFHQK
Procedure, shortened: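 Competitive fluorescence polarization using fluorescent glucocorticoid tracer and human GR in kit buffer. Compounds serially diluted 1:4 in DMSO, incubated with tracer and GR overnight at 4 °C before polarization read.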
Cc1ncccc1NC(=O)c1ccc2c(c1)C(=O)NC[C@H]1CC(O)(C(F)(F)F)CC[C@@]21Cc1ccccc1 (stereo partly drawn) [Example 22, (4aS,11bS)-11b-benzyl-3-hydroxy-N-(2-methylpyridin-3-yl)-7-oxo-3-(trifluoromethyl)-2,3,4,4a,5,6,7,11b-octahydro-1H-dibenzo[c,e]azepine-9-carboxamide] gave an IC50 greater than 10 µM.
Work on CCC[C@@]12CC[C@](O)(CC)C[C@@H]1CCCc1cc(C(=O)Nc3cccnc3C)ccc12.CCC[C@]12CC[C@@](O)(CC)C[C@H]1CCCc1cc(C(=O)Nc3cccnc3C)ccc12 [Example 26, (7aR,9S,11aS)-9-Ethyl-9-hydroxy-11a-propyl-6,7,7a,8,9,10,11,11a-octahydro-5H-dibenzo[a,c]cycloheptene-3-carboxylic acid (2-methyl-pyridin-3-yl)-amide; compound with (7aS,9R,11aR)-9-ethyl-9-hydroxy-11a-propyl-6,7,7a,8,9,10,11,11a-octahydro-5H-dibenzo[a,c]cycloheptene-3-carboxylic acid (2-methyl-pyridin-3-yl)-amide] yielded an IC50 of less than 0.1 µM.
CCC[C@@]12CC[C@@](O)(CC)C[C@@H]1CCCc1cc(C(=O)Nc3cccnc3C)ccc12.CCC[C@]12CC[C@](O)(CC)C[C@H]1CCCc1cc(C(=O)Nc3cccnc3C)ccc12 [Example 27, (7aR,9R,11aS)-9-ethyl-9-hydroxy-11a-propyl-6,7,7a,8,9,10,11,11a-octahydro-5H-dibenzo[a,c]cycloheptene-3-carboxylic acid (2-methyl-pyridin-3-yl)-amide; compound with (7aS,9S,11aR)-9-ethyl-9-hydroxy-11a-propyl-6,7,7a,8,9,10,11,11a-octahydro-5H-dibenzo[a,c]cycloheptene-3-carboxylic acid (2-methyl-pyridin-3-yl)-amide] showed an IC50 of 1 to 10 µM.
CCC[C@@]12CC[C@](O)(Cc3ccccc3)C[C@@H]1CCCc1cc(C(=O)Nc3cccnc3C)ccc12.CCC[C@]12CC[C@@](O)(Cc3ccccc3)C[C@H]1CCCc1cc(C(=O)Nc3cccnc3C)ccc12 [Example 34, (7aS,9R,11aR)-9-Benzyl-9-hydroxy-11a-propyl-6,7,7a,8,9,10,11,11a-octahydro-5H-dibenzo[a,c]cycloheptene-3-carboxylic acid (2-methyl-pyridin-3-yl)-amide; compound with (7aR,9S,11aS)-9-benzyl-9-hydroxy-11a-propyl-6,7,7a,8,9,10,11,11a-octahydro-5H-dibenzo[a,c]cycloheptene-3-carboxylic acid (2-methyl-pyridin-3-yl)-amide] gave an IC50 of less than 0.1 µM.
CCC[C@@]12CC[C@@](O)(Cc3ccccc3)C[C@@H]1CCCc1cc(C(=O)Nc3cccnc3C)ccc12.CCC[C@]12CC[C@](O)(Cc3ccccc3)C[C@H]1CCCc1cc(C(=O)Nc3cccnc3C)ccc12 [Example 35] gave an IC50 of 1 to 10 µM.
With O=C1CC[C@@]2(Cc3ccccc3)C(=O)CCCC[C@H]2C1.O=C1CC[C@]2(Cc3ccccc3)C(=O)CCCC[C@@H]2C1 [Example 36, (4aS,9aS)-4a-Benzyl-octahydro-benzocycloheptene-2,5-dione; compound with (4aR,9aR)-4a-benzyl-octahydro-benzocycloheptene-2,5-dione] the IC50 was greater than 10 µM.
CC[C@@]1(O)CC[C@@]2(Cc3ccccc3)c3c(cnn3C)CCC[C@H]2C1.CC[C@]1(O)CC[C@]2(Cc3ccccc3)c3c(cnn3C)CCC[C@@H]2C1 [Example 38, (6aS,8R,10aS)-10a-Benzyl-8-ethyl-1-methyl-1,4,5,6,6a,7,8,9,10,10a-decahydro-1,2-diaza-benzo[e]azulen-8-ol; compound with (6aR,8S,10aR)-10a-benzyl-8-ethyl-1-methyl-1,4,5,6,6a,7,8,9,10,10a-decahydro-1,2-diaza-benzo[e]azulen-8-ol] was tested, and the IC50 was 1 to 10 µM.

Reference: patent US20120238549A1, “Nuclear Hormone Receptor Modulators” (ABBOTT LABORATORIES, priority 2011, published 2012)
